These results are taken from patent US20170298056A1, “SMALL MOLECULE INHIBITORS OF HIV-1 ENTRY AND METHODS OF USE THEREOF” (Dana-Farber Cancer Institute, Inc., priority 2014, published 2017).

Molecules are shown by their SMILES. pIC50: −log10 of the molar value. Where only a bound is given, the exact number is not on record here.

What is called pIC50 is −log10 of the IC50, conventionally taken in molar units.

For one test, the system named is HIV-1JR-FL. As to the kind of experiment: Viral infection assay, recombinant HIV-1 pseudotyped with JR-FL Env (wild type and mutants), Cf2Th-CD4/CCR5 cells. The test is classed as cell-based. The following applies: for pIC50: Example 8 table, read-out: IC50 (JR-FL); for Therapeutic Index (TI): calculated from IC50 against JR-FL and A-MLV. The source says:
HIV-1 Env mutants. Mutations were introduced into the plasmid expressing the fulllength HIV-1YU2 or HIV-1JR-FL Envs using the QuikChange II site-directed mutagenesis protocol or the QuikChange multi site-directed mutagenesis kit (Stratagene). The presence of the desired mutations was confirmed by DNA sequencing. All HIV-1 Env residues are numbered based on alignment with the HXBc2 prototypic sequence, according to current convention.
(§1) Production of recombinant HIV-1 expressing luciferase. […] After 48 hours, the supernatant was collected, buffered with 50 mM Hepes pH 7.4 (final concentration) and centrifuged for 5 minutes at 750×g and 4° C. The virus-containing supernatant was used directly or frozen at −80° C.
(§2) Viral infection assay. Each test compound was serially diluted in DMSO in a 96-well B&W isoplate (PerkinElmer, Boston, Mass.) using an HP D300 Digital Dispenser, to a final volume of 450 nl. DMSO was used as a control. Viruses pseudotyped with a specific Env were added to each well and incubated briefly at room temperature. Cf2Th-CD4/CCR5 cells were detached with StemPro Accutase Cell Dissociation Reagent (Invitrogen, cat #A11105-01), washed once, and 5000 cells were added to each well. […] Following incubation, the medium was aspirated and cells were lysed with 30 μl of Passive Lysis Buffer (Promega, cat #E1941). The activity of the firefly luciferase, which was used as a reporter protein in the system, was measured with a Centro LB 960 luminometer (Berthold Technologies, Oak Ridge, Tenn.). One hundred microliters of assay buffer (15 mM MgSO4, 15 mM KH2PO4/K2HPO4 pH 7.8, 1 mM ATP and 1 mM DTT) was injected to each well, followed by a 50 μl injection of 1 mM Dluciferin potassium salt (BD Pharmingen, San Jose, Calif.); luminescence was measured for 2 sec. Infection of PBMC was done as above, but 20,000-40,000 cells/well and viruses concentrated by ultracentrifugation were used. After four hours of incubation with viruses, the cells were centrifuged at 200×g for 6 minutes at 4° C., resuspended in 100 μl RPMI-PBMC medium and incubated at 37° C. for an additional 36-40 hours (total 40-44 hours). Supernatant was removed after centrifugation at 400×g for 5 minutes and cells were processed to detect luciferase activity, as described above.

Test [1] deals with amphotropic murine leukemia virus (A-MLV). As to the kind of experiment: Viral infection assay, control virus with A-MLV envelope. The following applies: Example 8 table; read-out: IC50 (A-MLV). The test is classed as cell-based. How it is done: as §1, §2
The effect of 18A on viral infection was tested using recombinant HIV-1 pseudotyped with the envelope glycoproteins of different primate immunodeficiency viruses or the amphotropic murine leukemia virus (A-MLV) as a control.

Turning to `COc1ccc(/C=N/NC(=O)Nc2cccc3nsnc23)c(OC)c1` [Compound 18A2], in the test with HIV-1JR-FL, the pIC50 was 4.22 and the “Therapeutic Index (TI)” value was 1.7. Moreover, the pIC50 in test [1] is 4.00.
`COc1ccc(/C=N/NC(=O)Nc2cccc3nsnc23)c(O)c1` [Compound 18A58]: the negative-log IC50 (pIC50) (in the test with HIV-1JR-FL; in test [1]) was less than 3.95 throughout.
`COc1ccc(/C=N/NC(=O)Nc2cccc3nsnc23)cc1` [Compound 18A1]: the negative-log IC50 (pIC50) (in the test on HIV-1JR-FL; in test [1]) was less than 3.95 in each case.
On to `Cc1cc(/C=N/NC(=O)Nc2cccc3nsnc23)cc(C)c1O` [Compound 18A16], for which, in the test on HIV-1JR-FL, the pIC50 was 6.70 and the “Therapeutic Index (TI)” value was 0.5. For the same compound, the pIC50 in test [1] is 7.00.
The matching figures for `O=C(N/N=C/c1cccc(F)c1)Nc1cccc2nsnc12` [Compound 18A34]: 4.99, 6.8 and 4.16.
The matching figures for `O=C(N/N=C/c1ccc(O)c(O)c1)Nc1cccc2nsnc12` [Compound 18A20]: 5.28, 10.8 and 4.25.
The matching figures for `COc1ccc(/C=N/NC(=O)Nc2cccc3nsnc23)cc1O` [Compound 18A25]: 5.74, 6.4 and 4.94.
Turning to `COc1cc(/C=N/NC(=O)Nc2cccc3nsnc23)ccc1O` [Compound 18A18], in the test with HIV-1JR-FL, the pIC50 was 5.82 and the “Therapeutic Index (TI)” value is listed as 0.6. Also, the pIC50 in test [1] was 6.10.
`COc1ccc(/C=N/NC(=O)Nc2cccc3nsnc23)c(Cl)c1OC` [Compound 18A30]: the pIC50 (in the test on HIV-1JR-FL; in test [1]) was less than 3.95 throughout.
As to `O=C(N/N=C/c1cccc(O)c1)Nc1cccc2nsnc12` [Compound 18A19], in the test with HIV-1JR-FL, the pIC50 is 5.18 and the “Therapeutic Index (TI)” value is 7. In addition, the pIC50 in test [1] was 4.34.
The matching figures for `O=C(N/N=C/c1ccc(Cn2cccn2)cc1)Nc1cccc2nsnc12` [Compound 18A52]: 5.47, 11 and 4.43.
Consider `O=C(N/N=C/c1ccc(O)c(Br)c1)Nc1cccc2nsnc12` [Compound 18A48], for which the pIC50 (with HIV-1JR-FL; in test [1]) was less than 3.95 each time.
As to `O=C(N/N=C/c1ccc(O)c(Cl)c1)Nc1cccc2nsnc12` [Compound 18A32], the values for the pIC50 (with HIV-1JR-FL; in test [1]) were 5.40 and 4.72, respectively.
`O=C(N/N=C/c1ccccc1O)Nc1cccc2nsnc12` [Compound 18A10]: in the test with HIV-1JR-FL, the pIC50 is roughly 6.15 and the “Therapeutic Index (TI)” value is reported as less than 1. Further, the pIC50 in test [1] was greater than 6.30.
Regarding `O=C(N/N=C/c1c(O)cc(O)cc1O)Nc1cccc2nsnc12` [Compound 18A17], in the test with HIV-1JR-FL, the pIC50 was 4.61 and the “Therapeutic Index (TI)” value is 2.6. Besides, the negative-log IC50 (pIC50) in test [1] was 4.19.
The matching figures for `O=C(N/N=C/c1cc(O)cc(O)c1)Nc1cccc2nsnc12` [Compound 18A49]: 4.89, greater than 8.6 and less than 3.95.
The like results for `COc1ccc(/C=N/NC(=O)Nc2cccc3nsnc23)cc1OC` [Compound 18A5] were, in that order, 5.30, 5.1 and 4.59.
For `O=C(N/N=C/c1cccc(O)c1O)Nc1cccc2nsnc12` [Compound 18A36], in the test with HIV-1JR-FL, the negative logarithm of the IC50 (pIC50) is 5.21 and the “Therapeutic Index (TI)” value is recorded as 8.1. In addition, in test [1], the negative logarithm of the IC50 (pIC50) was 4.30.
With `O=C(N/N=C/c1ccc(O)c([N+](=O)[O-])c1)Nc1cccc2nsnc12` [Compound 18A40], the figures for the pIC50 (in the test with HIV-1JR-FL; in test [1]) were 5.12 and less than 3.95, respectively. Moreover, in the test on HIV-1JR-FL, the “Therapeutic Index (TI)” value is listed as greater than 14.7.
Consider `COc1cc(/C=N/NC(=O)Nc2cccc3nsnc23)cc(OC)c1OC` [Compound 18A21], for which the negative logarithm of the IC50 (pIC50) (in the test with HIV-1JR-FL; in test [1]) was less than 3.95 each time.
For the compound `O=C(N/N=C/c1ccccc1)Nc1cccc2nsnc12` [Compound 18A13], in the test on HIV-1JR-FL, the pIC50 is 4.77 and the “Therapeutic Index (TI)” value is listed as 4.4. Moreover, the pIC50 in test [1] is 4.12.
